# Measurements as given in patent EP4682145A1, “BENZOHETEROCYCLIC COMPOUND, AND PREPARATION METHOD THEREFOR AND USE THEREOF” (Cascade Pharmaceuticals, Inc., priority 2023, dated 2024).
# Target: T1, human FFAR1 (GPR40) (Homo sapiens, UniProt O14842)
# T1 construct: Flag; expressed in transfected cells; host or cells: HEK293T
# Assay: NFAT-RE-based reporter gene activity assay (Dual-Glo luciferase) for GPR40 agonistic activity in co-transfected HEK293T cells
# Type: cell-based
# Conditions: 4-hour treatment
# Method in brief: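 HEK293T cells co-transfected with human FFAR1, NFAT-RE firefly luciferase and TK-Renilla plasmids; 24 h later treated 4 h with 10 half-log compound dilutions from 1 µM. Firefly/Renilla ratio normalised to DMSO; EC50 from four-parameter fit.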
# T1 sequence (O14842 whole entry): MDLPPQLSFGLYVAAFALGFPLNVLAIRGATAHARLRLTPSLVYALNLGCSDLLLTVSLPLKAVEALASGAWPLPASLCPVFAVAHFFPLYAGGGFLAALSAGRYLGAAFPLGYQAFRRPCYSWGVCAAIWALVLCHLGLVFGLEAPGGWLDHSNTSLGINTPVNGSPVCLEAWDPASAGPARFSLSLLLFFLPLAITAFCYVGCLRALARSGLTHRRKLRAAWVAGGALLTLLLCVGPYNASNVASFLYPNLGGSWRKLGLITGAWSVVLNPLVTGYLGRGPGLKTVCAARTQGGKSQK
Compound,EC50,Efficacy (%) (class symbols),Efficacy (%) (numeric values of positive controls)
COc1ccc(F)c(N2CCC(c3oc4cc(C(CC(=O)O)C5CC5)ccc4c3C(=O)Nc3cccc(C)c3)CC2)c1 (stereo not drawn) [Compound 320],0.01 to 0.1 µM,†† (150 ≥ Efficacy (%) > 100),–
COc1cccc(-c2c(C3CCN(c4ccc5c(c4)OCO5)CC3)oc3cc(C(CC(=O)O)C4CC4)ccc23)c1 (stereo not drawn) [Compound 211],0.1 to 0.5 µM,††† (Efficacy (%) > 150),–
COc1cc(OC)cc(N2CCC(c3oc4cc(C(CC(=O)O)C5CC5)ccc4c3-c3ccc(C(C)(C)C)cc3)CC2)c1 (stereo not drawn) [Compound 205],0.1 to 0.5 µM,† (100 ≥ Efficacy (%) > 50),–
CC(C)(C)c1cccc(-c2c(-c3ccccc3)oc3cc(C(CC(=O)O)C4CC4)ccc23)c1 (stereo not drawn) [Compound 2],> 0.5 µM,†† (150 ≥ Efficacy (%) > 100),–
COc1cccc(N2CCC(c3oc4cc(C(CP(=O)(O)OC)C5CC5)ccc4c3-c3cnn(C(C)(C)C)c3)CC2)c1 (stereo not drawn) [Compound 70],> 0.5 µM,†† (150 ≥ Efficacy (%) > 100),–
CCOc1cccc(N2CCC(c3oc4cc(C(CC(=O)O)C5CC5)ccc4c3-c3ccc(C(C)(C)C)cc3)CC2)c1 (stereo not drawn) [Compound 15],0.1 to 0.5 µM,††† (Efficacy (%) > 150),–
COc1cccc(N2CCC(c3oc4cc([C@@H](CC(=O)O)C5CC5)ccc4c3-c3csc(OC)n3)CC2)c1 [Compound 105],0.01 to 0.1 µM,†† (150 ≥ Efficacy (%) > 100),–
COc1cccc(N2CCC(c3oc4cc(C(CC(=O)O)C5CC5)ccc4c3-c3nnc(C(C)(C)CC4CCCCC4)o3)CC2)c1 (stereo not drawn) [Compound 135],0.01 to 0.1 µM,†† (150 ≥ Efficacy (%) > 100),–
COc1cccc(N2CCC(c3oc4cc([C@@H](CC(=O)O)C5CC5)ccc4c3C(=O)Nc3cc([N+](=O)[O-])ccc3Cl)CC2)c1 [Compound 276],0.01 to 0.1 µM,†† (150 ≥ Efficacy (%) > 100),–
COc1cccc(N2CCC(c3oc4cc([C@@H](CC(=O)O)C5CC5)ccc4c3C(OC)c3ccccc3)CC2)c1 (stereo partly drawn) [Compound 425],0.1 to 0.5 µM,†† (150 ≥ Efficacy (%) > 100),–
"COc1ccc(C(=O)N(CC(C)(C)C)c2cccc(C)n2)c(N2CCC(COc3cc([C@@H](CC(=O)O)C4CC4)ccn3)CC2)c1 [SCO-267, SCO267, reference compound]",0.01 to 0.1 µM,–,100%
CNc1cccc(N2CCC(c3oc4cc(C(CC(=O)O)C5CC5)ccc4c3-c3ccc(C(C)(C)C)cc3)CC2)c1 (stereo not drawn) [Compound 24],0.1 to 0.5 µM,† (100 ≥ Efficacy (%) > 50),–
COc1cccc(N2CCC(c3oc4cc([C@@H](CC(=O)O)C5CC5)ccc4c3C(OCC(C)C)c3ccccc3)CC2)c1 (stereo partly drawn) [Compound 426],0.01 to 0.1 µM,††† (Efficacy (%) > 150),–
COc1cccc(N2CCC(c3oc4cc([C@@H](CC(=O)O)C5CC5)ccc4c3CN(C)CC(C)(C)C)CC2)c1 [Compound 438],0.01 to 0.1 µM,†† (150 ≥ Efficacy (%) > 100),–
COc1cccc(N2CCC(c3oc4cc([C@@H](CC(=O)O)C5CC5)ccc4c3-c3cccc(C)c3)CC2)c1 [Compound 28],0.1 to 0.5 µM,††† (Efficacy (%) > 150),–
COc1cccc(N2CCC(c3oc4cc([C@@H](CC(=O)O)C5CC5)ccc4c3C(=O)Nc3cc(F)ccc3Br)CC2)c1 [Compound 271],≤ 0.01 µM,††† (Efficacy (%) > 150),–
CCc1ccc(Cl)c(NC(=O)c2c(C3CCN(c4cccc(OC)c4)CC3)oc3cc([C@@H](CC(=O)O)C4CC4)ccc23)c1 [Compound 278],< 0.01 µM,††††,–
COc1cccc(N2CCC(c3oc4cc([C@@H](CC(=O)O)C5CC5)ccc4c3C(OCC(C)C)c3ccccc3C)CC2)c1 (stereo partly drawn) [Compound 429],0.1 to 0.5 µM,††† (Efficacy (%) > 150),–
COc1cccc(N2CCC(c3oc4cc(C(CC(=O)O)C5CC5)ccc4c3C(=O)Nc3cccc(C)c3F)CC2)c1 (stereo not drawn) [Compound 250],0.1 to 0.5 µM,†† (150 ≥ Efficacy (%) > 100),–
COc1cccc(N2CCC(c3oc4cc([C@@H](CC(=O)O)C5CC5)ccc4c3C(O)C(C)(C)C)CC2)c1 (stereo partly drawn) [Compound 423],0.1 to 0.5 µM,† (100 ≥ Efficacy (%) > 50),–
COc1cccc(N2CCC(c3oc4cc(C(CC(=O)O)C5CC5)ccc4c3-c3cnn(C(C)(C)C#N)c3)CC2)c1 (stereo not drawn) [Compound 127],0.1 to 0.5 µM,††† (Efficacy (%) > 150),–
COc1cccc(N2CCC(c3oc4cc(C(CC(=O)O)C5CC5)ccc4c3-c3nnc(C(C)C)o3)CC2)c1 (stereo not drawn) [Compound 123],0.1 to 0.5 µM,†† (150 ≥ Efficacy (%) > 100),–
COc1cccc(N2CCC(c3oc4cc([C@@H](CC(=O)O)C5CC5)ccc4c3C(=O)NC34CC5CC(C)(CC(C)(C5)C3)C4)CC2)c1 [Compound 354],0.1 to 0.5 µM,†† (150 ≥ Efficacy (%) > 100),–
COc1cccc(N2CCC(c3oc4cc([C@@H](CC(=O)O)C5CC5)ccc4c3COc3ccccc3)CC2)c1 [Compound 404],0.1 to 0.5 µM,†† (150 ≥ Efficacy (%) > 100),–

Compound,EC50,Efficacy (%) (class symbols),Efficacy (%) (numeric values of positive controls)
COc1ccc(F)c(N2CCC(c3oc4cc(C(CC(=O)O)C5CC5)ccc4c3-c3cccc(F)c3)CC2)c1 (stereo not drawn) [Compound 178],0.1 to 0.5 µM,†† (150 ≥ Efficacy (%) > 100),–
COc1ccc(F)c(N2CCC(c3oc4cc([C@@H](CC(=O)O)C5CC5)ccc4c3-c3ccc(C(C)(C)O)cc3)CC2)c1 [Compound 177],0.1 to 0.5 µM,†† (150 ≥ Efficacy (%) > 100),–
CCn1cc(-c2c(C3CCN(c4cccc(OC)c4)CC3)oc3cc(C(CC(=O)O)C4CC4)ccc23)cn1 (stereo not drawn) [Compound 37],0.1 to 0.5 µM,†† (150 ≥ Efficacy (%) > 100),–
COc1ccc(F)c(N2CCC(c3oc4cc(C(CC(=O)O)C5CC5)ccc4c3C(=O)Nc3ccccc3)CC2)c1 (stereo not drawn) [Compound 314],0.1 to 0.5 µM,†† (150 ≥ Efficacy (%) > 100),–
CC(C)(C)c1ccc(-c2c(C3CCN(c4ccc5ncoc5c4)CC3)oc3cc(C(CC(=O)O)C4CC4)ccc23)cc1 (stereo not drawn) [Compound 214],0.1 to 0.5 µM,† (100 ≥ Efficacy (%) > 50),–
COc1cccc(N2CCC(c3oc4cc(C(CC(=O)O)C5CC5)ccc4c3-c3cccc(C(C)(C)C)c3)CC2)c1 (stereo not drawn) [Compound 11],0.01 to 0.1 µM,††† (Efficacy (%) > 150),–
COc1ccc(N2CCC(c3oc4cc(C(CC(=O)O)C5CC5)ccc4c3-c3cccc(C(C)(C)C)c3)CC2)cc1 (stereo not drawn) [Compound 10],0.1 to 0.5 µM,†† (150 ≥ Efficacy (%) > 100),–
COc1ccc(F)c(N2CCC(c3oc4cc(C(CC(=O)O)C5CC5)ccc4c3-c3cccc(-n4cccn4)c3)CC2)c1 (stereo not drawn) [Compound 193],0.1 to 0.5 µM,†† (150 ≥ Efficacy (%) > 100),–
COc1cccc(N2CCC(c3oc4cc(C(CC(=O)O)C5CC5)ccc4c3-c3nnc(C(C)(C)C(F)(F)F)o3)CC2)c1 (stereo not drawn) [Compound 126],0.01 to 0.1 µM,†† (150 ≥ Efficacy (%) > 100),–
COc1cccc(N2CCC(c3oc4cc([C@@H](CC(=O)O)C5CC5)ccc4c3C(=O)Nc3ccccc3OC(F)(F)F)CC2)c1 [Compound 240],0.1 to 0.5 µM,†† (150 ≥ Efficacy (%) > 100),–
COc1cccc(N2CCC(c3oc4cc(C(CC(=O)O)C5CC5)ccc4c3-c3cn(C(C)C)cn3)CC2)c1 (stereo not drawn) [Compound 104],> 0.5 µM,†† (150 ≥ Efficacy (%) > 100),–
COc1cccc(N2CCC(c3oc4cc([C@@H](CC(=O)O)C5CC5)ccc4c3-c3ccc4ccccc4n3)CC2)c1 [Compound 154],0.1 to 0.5 µM,††† (Efficacy (%) > 150),–
COc1ccc(F)c(N2CCC(c3oc4cc(C(CC(=O)O)C5CC5)ccc4c3C(=O)Nc3ccc(C(C)(C)C)cc3)CC2)c1 (stereo not drawn) [Compound 315],0.1 to 0.5 µM,†† (150 ≥ Efficacy (%) > 100),–
COc1cccc(N2CCC(c3oc4cc(C(CC(=O)O)C5CC5)ccc4c3C(=O)Nc3ncns3)CC2)c1 (stereo not drawn) [Compound 293],0.1 to 0.5 µM,†† (150 ≥ Efficacy (%) > 100),–
COc1ccc(F)c(N2CCC(c3oc4cc(C(CC(=O)O)C5CC5)ccc4c3C=C(C)C)CC2)c1 (stereo not drawn) [Compound 370],0.1 to 0.5 µM,†† (150 ≥ Efficacy (%) > 100),–
COc1ccc(F)c(N2CCC(c3oc4cc(C(CC(=O)O)C5CC5)ccc4c3/C=C/C(C)(C)C)CC2)c1 (stereo not drawn) [Compound 366],0.01 to 0.1 µM,†† (150 ≥ Efficacy (%) > 100),–
COc1ccc(F)c(N2CCC(c3oc4cc([C@H](CC(=O)O)C5CC5)ccc4c3-c3ccc(C(C)(C)C)cc3)CC2)c1 [Compound 170],0.1 to 0.5 µM,†† (150 ≥ Efficacy (%) > 100),–
COc1cccc(N2CCC(c3oc4cc([C@@H](CC(=O)O)C5CC5)ccc4c3C(C)N(C)CC(C)(C)C)CC2)c1 (stereo partly drawn) [Compound 439],0.1 to 0.5 µM,†† (150 ≥ Efficacy (%) > 100),–
COc1cccc(N2CCC(c3oc4cc([C@@H](CC(=O)O)C5CC5)ccc4c3COC(=O)C(C)(C)C)CC2)c1 [Compound 398],0.1 to 0.5 µM,††† (Efficacy (%) > 150),–
CCCCCC(C)(C)c1nnc(-c2c(C3CCN(c4cccc(OC)c4)CC3)oc3cc(C(CC(=O)O)C4CC4)ccc23)o1 (stereo not drawn) [Compound 131],0.01 to 0.1 µM,†† (150 ≥ Efficacy (%) > 100),–
COc1cccc(N2CCC(c3oc4cc([C@@H](CC(=O)O)C5CC5)ccc4c3CN(CC(C)(C)C)c3cccc(Cl)c3)CC2)c1 [Compound 447],0.1 to 0.5 µM,†† (150 ≥ Efficacy (%) > 100),–
COc1ccc(F)c(N2CCC(c3oc4cc([C@@H](CC(=O)O)C5CC5)ccc4c3-c3nnc(C(C)(C)C)o3)CC2)c1 [Compound 142],0.1 to 0.5 µM,†† (150 ≥ Efficacy (%) > 100),–
CCCCOC(C)c1c(C2CCN(c3cccc(OC)c3)CC2)oc2cc([C@@H](CC(=O)O)C3CC3)ccc12 (stereo partly drawn) [Compound 410],0.1 to 0.5 µM,††† (Efficacy (%) > 150),–
COc1cc(N2CCC(c3oc4cc(C(CC(=O)O)C5CC5)ccc4c3-c3ccc(C(C)(C)C)cc3)CC2)ccc1F (stereo not drawn) [Compound 206],0.1 to 0.5 µM,†† (150 ≥ Efficacy (%) > 100),–
